Laboratory results: the supplement of paper PMC13380429

Legend:
Details in all cases: 72 h
HepG2 [1] = experiment: relative viability EC50 (midpoint between 100% and the lowest measured viability); higher = less toxic
Vero E6 [2] = experiment: as above
Calu-3 [3] = experiment: as above
Caco-2 [4] = experiment: as above
U2OS [5] = experiment: as above
HepG2 [6] = experiment: cell viability relative to DMSO; higher = less toxic
Vero E6 [7] = experiment: as above
Calu-3 [8] = experiment: as above
Caco-2 [9] = experiment: as above
U2OS [10] = experiment: as above
HepG2 [11] = experiment: drug sensitivity score (DSS) for viability; higher = more toxic; extreme values may be limits of the assay
Vero E6 [12] = experiment: as above
Calu-3 [13] = experiment: as above
Caco-2 [14] = experiment: as above
U2OS [15] = experiment: as above

CC1(C)O[C@@H]2C[C@H]3[C@@H]4CCC5=CC(=O)C=C[C@]5(C)[C@@]4(F)[C@@H](O)C[C@]3(C)[C@]2(C(=O)CO)O1 [TRIAMCINOLONE ACETONIDE]
Details | drug sensitivity score | relative viability EC50 [µM]
Caco-2 [4] | – | > 10
Caco-2 [14] | 0 | –
Calu-3 [3] | – | > 10
Calu-3 [13] | 0 | –
HepG2 [1] | – | > 10
HepG2 [11] | 0 | –
U2OS [5] | – | > 10
U2OS [15] | 0 | –
Vero E6 [2] | – | > 10
Vero E6 [12] | 0 | –

cell viability [%]
Details | Caco-2 [9] | Calu-3 [8] | HepG2 [6] | U2OS [10] | Vero E6 [7]
1 nM | 94.2 | 98.4 | 103 | 99.4 | 102
10 nM | 96.2 | 95.4 | 91.3 | 95.7 | 99
100 nM | 96.8 | 87.6 | 94.6 | 94.6 | 95.3
1000 nM | 89 | 103 | 101 | 90.7 | 97.4
10000 nM | 93.1 | 106 | 93 | 95.2 | 100
